This note sets out measurements from patent US6051406A, “Keratan sulfate 6-sulfotransferase and DNA coding for the same” (Seikagaku Kogyo Kabushiki Kaish, priority 1996, dated 2000).

Series [1] deals with crude extract of COS-7 cells with pCXNKSST introduced. Put plainly: Sulfotransferase activity for various glycosaminoglycan receptors, crude extract (Reaction Mixture II). Format: biochemical. The settings on record: 25 nmol glycosaminoglycan as receptor. On the procedure: (§1) Activity for various kinds of glycosaminoglycans as the substrate was assayed by using 25 nmol (as galactosamine for chondroitin sulfate (A and C) and dermatan sulfate, and as glucosamine for keratan sulfate and CDSNS-heparin (completely desulfated, N-sulfated heparin, available from Seikagaku Corp.)) of glycosaminoglycan instead of keratan sulfate.
(§2) In the above both cases, the reaction mixtures were incubated at 37° C. for 20 minutes, and the reaction was stopped by immersing reaction tubes into boiling water for one minute.
(§3) After stopping the reaction, 0.1 μmol (as glucuronic acid) of chondroitin sulfate A was added as a carrier, and 3 volumes of ethanol containing 1.3% potassium acetate was added to the reaction mixture to precipitate ^35 S-labeled polysaccharide. The reaction mixture was centrifuged at 10,000×g for 10 minutes, and the resulting precipitates were dissolved in 70 μl of water. The resulting solution (50 μl) was loaded on a desalting column equilibrated with 0.1 M NH4 HCO3, and the eluted fractions containing the ^35 S-labeled polysaccharide were collected. Scintillation cocktail (1 ml, Clearsol, Nakarai Tesque) was added to 200 μl of each of the obtained fractions, and incorporation of ^35 S into the polysaccharide was determined by assaying ^35 S-radioactivity. Activity catalyzing transfer of 1 pmol sulfate group/minute was defined as 1 unit.
(§4) The adsorbed fraction was eluted with Buffer A containing 0.5 M NaCl, and the eluate was dialyzed against Buffer A containing 50 mM NaCl. The dialysate was used as KSST not containing CST. […] For the activity assay, 25 nmol (as galactosamine for chondroitin, chondroitin sulfate A, chondroitin sulfate C and dermatan sulfate, and as glucosamine for keratan sulfate and CDSNS-heparin) of glycosaminoglycan was used instead of the keratan sulfate contained in the standard reaction mixture.

Series [2] concerns the target T1, partially purified KSST (KSGal6ST) (Homo sapiens, UniProt O43916).
T1 sequence (O43916 1-411): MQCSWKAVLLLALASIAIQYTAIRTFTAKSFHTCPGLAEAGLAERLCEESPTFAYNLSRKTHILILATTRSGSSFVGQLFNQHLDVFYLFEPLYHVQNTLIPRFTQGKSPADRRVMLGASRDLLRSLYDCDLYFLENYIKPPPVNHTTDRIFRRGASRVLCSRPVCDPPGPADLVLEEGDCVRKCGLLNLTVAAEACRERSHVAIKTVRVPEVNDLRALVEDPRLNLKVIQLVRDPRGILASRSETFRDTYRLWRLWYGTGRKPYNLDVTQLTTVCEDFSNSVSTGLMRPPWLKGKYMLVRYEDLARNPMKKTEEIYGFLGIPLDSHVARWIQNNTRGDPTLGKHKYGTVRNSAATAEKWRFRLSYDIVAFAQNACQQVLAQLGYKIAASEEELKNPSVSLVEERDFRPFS
Kind of series: Sulfotransferase activity for various glycosaminoglycan receptors, partially purified KSST (Reaction Mixture II). The settings on record: for Sulfotransferase activity, Partially purified product: 25 nmol glycosaminoglycan as receptor, Reaction Mixture II, after Heparin-Sepharose CL-6B; for sulfotransferase activity for this receptor relative to keratan sulfate sulfotransferase activity after the purification: partially purified product. Format: biochemical. On the set-up: made in house; host or cells: COS-7 cells transfected with pCXNKSST (pCXN2 vector); extract partially purified over DEAE-Sephadex A-50 (non-adsorbed fraction) and Heparin-Sepharose CL-6B. As for the experimental part: as §1, §2, §3
Homogenate of COS-7 cells with pCXNKSST introduced from 80 dishes (224 mg as protein) was applied to a DEAE-Sephadex A-50 column (Pharmacia, 2.2×13 cm) equilibrated with Buffer A. The column was washed with 500 ml of Buffer A , and then the adsorbed fraction was eluted with Buffer A containing 0.5 M NaCl.
as §4

Series [3] deals with T1, partially purified KSST (KSGal6ST). Kind of series: Effect of added salts and dithiothreitol on KSST activity (Reaction Mixture II). The settings on record: for Sulfotransferase activity with added salt: salt at final concentration of 5 mM instead of CaCl2, keratan sulfate receptor, Reaction Mixture II. On the set-up: made in house; host or cells: COS-7 cells transfected with pCXNKSST (pCXN2 vector); extract partially purified over DEAE-Sephadex A-50 (non-adsorbed fraction) and Heparin-Sepharose CL-6B. Format: biochemical.

In series [4] the test system is sulfotransferase activity. Kind of series: Sulfotransferase activity of pCXNKSST-transfected COS-7 cells with other sulfate group receptors. It counts as cell-based. The conditions noted are these: COS-7 cells with KSST cDNA in the correct direction, substance used as sulfate group receptor. The text has this:
This cDNA was introduced into a plasmid (pCXN2) (a recombinant plasmid where the direction of the promoter is conformed with that of the cDNA was designated as pCXNKSST, and recombinant plasmid where the cDNA was inserted in a reversed direction was designated as pCXNKSST2), and COS-7 cells were transfected with the obtained plasmids by the method described above. […] When dermatan sulfate, heparan sulfate, or completely desulfated, N-sulfated heparin (CDSNS-heparin) was used as the sulfate group receptor, no increase of sulfotransferase activity was observed.

Series [5] addresses T1, partially purified KSST (KSGal6ST). The settings on record: read-out: Km value for PAPS (sulfate group donor).
Substrate in series [6]: Nc1ncnc2c1ncn2[C@@H]1O[C@H](COP(=O)(O)OS(=O)(=O)O)[C@@H](OP(=O)(O)O)[C@H]1O
Kind of series: purified protein, by the assay type.

For the molecule Chondroitin, the “Sulfotransferase activity, Crude extract” value in series [1] is on record as 0.016 pmol/minute/mg protein × 10^-2. For the same molecule, in series [2], the “Sulfotransferase activity, Partially purified product” value is reported as 0.03 pmol/minute/mg protein × 10^-2 and the “sulfotransferase activity for this receptor relative to keratan sulfate sulfotransferase activity after the purification” value is no more than 2%. With `O=S(=O)([O-])[O-].[Fe+2]` [FeSO4], the “Sulfotransferase activity with added salt” value in series [3] is given as 3.0 pmol/minute/mg protein. In the case of `[Cl-].[Cl-].[Co+2]` [CoCl2], the “Sulfotransferase activity with added salt” value in series [3] stood at 24.6 pmol/minute/mg protein.

In the case of Chondroitin sulfate C, the “Sulfotransferase activity, Crude extract” value in series [1] is listed as 0.005 pmol/minute/mg protein × 10^-2. Moreover, in series [2], the “Sulfotransferase activity, Partially purified product” value is 0.02 pmol/minute/mg protein × 10^-2. Take “completely desulfated, N-sulfated heparin [CDSNS-heparin]”: in series [1], the “Sulfotransferase activity, Crude extract” value is 0.109 pmol/minute/mg protein × 10^-2. Further, in series [2], the “Sulfotransferase activity, Partially purified product” value is listed as 0.05 pmol/minute/mg protein × 10^-2 and the “sulfotransferase activity for this receptor relative to keratan sulfate sulfotransferase activity after the purification” value was no more than 2%. The “increase of sulfotransferase activity with this sulfate group receptor” value (shortened to “increase of sulfotransferase activity”) in series [4] is “no increase”. As to `[Cl-].[Cl-].[Mg+2]` [MgCl2], in series [3], the “Sulfotransferase activity with added salt” value is reported as 18.8 pmol/minute/mg protein.

Consider Keratan sulfate, for which the “Sulfotransferase activity, Crude extract” value in series [1] was 0.168 pmol/minute/mg protein × 10^-2. Further, the “Sulfotransferase activity, Partially purified product” value in series [2] is recorded as 2.51 pmol/minute/mg protein × 10^-2.

Regarding `[Cl][Cu][Cl]` [CuCl2], in series [3], the “Sulfotransferase activity with added salt” value came to 10.0 pmol/minute/mg protein. In the case of heparan sulfate, the “increase of sulfotransferase activity” value in series [4] is “no increase”. For the molecule `Nc1ncnc2c1ncn2[C@@H]1O[C@H](COP(=O)(O)OS(=O)(=O)O)[C@@H](OP(=O)(O)O)[C@H]1O` [PAPS, 3'-phosphoadenosine 5'-phosphosulfate], the Km in series [5] was roughly 0.2 µM. Turning to Chondroitin sulfate A, in series [1], the “Sulfotransferase activity, Crude extract” value is 0.009 pmol/minute/mg protein × 10^-2. Further, the “Sulfotransferase activity, Partially purified product” value in series [2] was 0.03 pmol/minute/mg protein × 10^-2. `[Cl-].[Cl-].[Zn+2]` [ZnCl2]: the “Sulfotransferase activity with added salt” value in series [3] was found to be 1.5 pmol/minute/mg protein. Turning to `[Ba+2].[Cl-].[Cl-]` [BaCl2], the “Sulfotransferase activity with added salt” value in series [3] came out at 21.0 pmol/minute/mg protein.

Consider Protamine Chloride, for which the “Sulfotransferase activity with added salt” value in series [3] was found to be 8.8 pmol/minute/mg protein.

`O[C@H](CS)[C@H](O)CS` (racemic) [Dithiothreitol]: in series [3] (concentration up to 10 mM), the “effect on KSST activity” value is recorded as “did not affect the KSST activity”. `[Cl-].[Cl-].[Sr+2]` [SrCl2]: the “Sulfotransferase activity with added salt” value in series [3] came to 21.6 pmol/minute/mg protein. For `[Cl][Mn][Cl]` [MnCl2], the “Sulfotransferase activity with added salt” value in series [3] was 28.0 pmol/minute/mg protein. The “effect on KSST activity” value in series [3] (salts at 5 mM) was “most strongly enhanced the KSST activity”. `[Ca+2].[Cl-].[Cl-]` [CaCl2]: in series [3], the “optimum concentration for KSST activity” value is reported as “about 10 mM” and the “Sulfotransferase activity with added salt” value is on record as 26.2 pmol/minute/mg protein. The “effect on KSST activity” value in series [3] (salts at 5 mM) is listed as “most strongly enhanced the KSST activity”.

In the case of Dermatan sulfate, the “Sulfotransferase activity, Crude extract” value in series [1] is 0.005 pmol/minute/mg protein × 10^-2. In addition, the “Sulfotransferase activity, Partially purified product” value in series [2] is on record as 0.02 pmol/minute/mg protein × 10^-2. Further, the “increase of sulfotransferase activity” value in series [4] is “no increase”. In the case of `[Cl][Ni][Cl]` [NiCl2], the “Sulfotransferase activity with added salt” value in series [3] stood at 10.0 pmol/minute/mg protein.

B1: partially purified KSST (KSGal6ST) (Homo sapiens) (protein)
chain: MQCSWKAVLLLALASIAIQYTAIRTFTAKSFHTCPGLAEAGLAERLCEESPTFAYNLSRKTHILILATTRSGSSFVGQLFNQHLDVFYLFEPLYHVQNTLIPRFTQGKSPADRRVMLGASRDLLRSLYDCDLYFLENYIKPPPVNHTTDRIFRRGASRVLCSRPVCDPPGPADLVLEEGDCVRKCGLLNLTVAAEACRERSHVAIKTVRVPEVNDLRALVEDPRLNLKVIQLVRDPRGILASRSETFRDTYRLWRLWYGTGRKPYNLDVTQLTTVCEDFSNSVSTGLMRPPWLKGKYMLVRYEDLARNPMKKTEEIYGFLGIPLDSHVARWIQNNTRGDPTLGKHKYGTVRNSAATAEKWRFRLSYDIVAFAQNACQQVLAQLGYKIAASEEELKNPSVSLVEERDFRPFS
As to B1, the Km in series [6] was 0.2 µM.

A word on the Km: it is the concentration of substrate that gives half-maximal velocity.
